Test results taken from PMC5053573, “Structure-Based Design of Tetrahydroisoquinoline-7-carboxamides as Selective Discoidin Domain Receptor 1 (DDR1) Inhibitors” (Journal of Medicinal Chemistry, 2016).

Tests used:
Experiment in all cases: biochemical
Conditions in all cases: read-out: %Ctrl @ 1000nM
MST1 = target: T1, MST1 (Homo sapiens, UniProt Q13043)
T1 construct: gene STK4

HASPIN = HASPIN (Homo sapiens, UniProt Q8TF76)
PIP5K1A = PIP5K1A (Homo sapiens, UniProt Q99755)
ABL1-phosphorylated = ABL1-phosphorylated (Homo sapiens, UniProt P00519)
EGFR(L858R,T790M) = EGFR(L858R,T790M) (Homo sapiens, UniProt P00533, L858R/T790M)
IRAK4 = IRAK4 (Homo sapiens, UniProt Q9NWZ3)
MERTK = MERTK (Homo sapiens, UniProt Q12866)
SNARK = target: T2, SNARK (Homo sapiens, UniProt Q9H093)
T2 construct: gene NUAK2

AMPK-alpha1 = target: T3, AMPK-alpha1 (Homo sapiens, UniProt Q13131)
T3 construct: gene PRKAA1

EGFR(T790M) = EGFR(T790M) (Homo sapiens, UniProt P00533, T790M)
PIP5K2B = target: T4, PIP5K2B (Homo sapiens, UniProt P78356)
T4 construct: gene PIP4K2B

CSNK1G3 = CSNK1G3 (Homo sapiens, UniProt Q9Y6M4)
EPHA5 = EPHA5 (Homo sapiens, UniProt P54756)
QSK = target: T5, QSK (Homo sapiens, UniProt Q9Y2K2)
T5 construct: gene SIK3

PAK1 = PAK1 (Homo sapiens, UniProt Q13153)
RET(V804L) = RET(V804L) (Homo sapiens, UniProt P07949, V804L)
PRKG1 = PRKG1 (Homo sapiens, UniProt Q13976)
[1] = target: ABL1(T315I)-phosphorylated (Homo sapiens, UniProt P00519, T315I)
RIOK2 = RIOK2 (Homo sapiens, UniProt Q9BVS4)
PIK3CA(E545A) = PIK3CA(E545A) (Homo sapiens, UniProt P42336, E545A)
ERBB4 = ERBB4 (Homo sapiens, UniProt Q15303)
PRKCH = PRKCH (Homo sapiens, UniProt P24723)
NEK9 = NEK9 (Homo sapiens, UniProt Q8TD19)
ARK5 = target: T6, ARK5 (Homo sapiens, UniProt O60285)
T6 construct: gene NUAK1

PRKG2 = PRKG2 (Homo sapiens, UniProt Q13237)
MYO3A = MYO3A (Homo sapiens, UniProt Q8NEV4)
MRCKA = target: T7, MRCKA (Homo sapiens, UniProt Q5VT25)
T7 construct: gene CDC42BPA

[2] = target: ABL1(T315I)-nonphosphorylated (Homo sapiens, UniProt P00519, T315I)
LOK = target: T8, LOK (Homo sapiens, UniProt O94804)
T8 construct: gene STK10

PIK3CA = PIK3CA (Homo sapiens, UniProt P42336)
PIK3CA(H1047L) = PIK3CA(H1047L) (Homo sapiens, UniProt P42336, H1047L)
MEK2 = target: T9, MEK2 (Homo sapiens, UniProt P36507)
T9 construct: gene MAP2K2

CSK = CSK (Homo sapiens, UniProt P41240)
MARK4 = MARK4 (Homo sapiens, UniProt Q96L34)
EPHA8 = EPHA8 (Homo sapiens, UniProt P29322)

T4 sequence (P78356 whole entry): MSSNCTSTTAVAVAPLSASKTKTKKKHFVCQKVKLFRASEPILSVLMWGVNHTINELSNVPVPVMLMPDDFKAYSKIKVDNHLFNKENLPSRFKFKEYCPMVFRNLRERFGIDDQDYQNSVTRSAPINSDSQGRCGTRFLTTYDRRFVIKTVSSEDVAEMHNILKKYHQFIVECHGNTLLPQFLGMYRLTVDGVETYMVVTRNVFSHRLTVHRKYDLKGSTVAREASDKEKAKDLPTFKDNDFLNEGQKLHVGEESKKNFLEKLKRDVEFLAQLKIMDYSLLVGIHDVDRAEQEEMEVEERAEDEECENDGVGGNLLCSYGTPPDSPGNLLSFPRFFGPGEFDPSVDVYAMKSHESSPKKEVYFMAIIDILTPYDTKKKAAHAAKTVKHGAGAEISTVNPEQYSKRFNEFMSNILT
Sequence of HASPIN (Q8TF76 whole entry): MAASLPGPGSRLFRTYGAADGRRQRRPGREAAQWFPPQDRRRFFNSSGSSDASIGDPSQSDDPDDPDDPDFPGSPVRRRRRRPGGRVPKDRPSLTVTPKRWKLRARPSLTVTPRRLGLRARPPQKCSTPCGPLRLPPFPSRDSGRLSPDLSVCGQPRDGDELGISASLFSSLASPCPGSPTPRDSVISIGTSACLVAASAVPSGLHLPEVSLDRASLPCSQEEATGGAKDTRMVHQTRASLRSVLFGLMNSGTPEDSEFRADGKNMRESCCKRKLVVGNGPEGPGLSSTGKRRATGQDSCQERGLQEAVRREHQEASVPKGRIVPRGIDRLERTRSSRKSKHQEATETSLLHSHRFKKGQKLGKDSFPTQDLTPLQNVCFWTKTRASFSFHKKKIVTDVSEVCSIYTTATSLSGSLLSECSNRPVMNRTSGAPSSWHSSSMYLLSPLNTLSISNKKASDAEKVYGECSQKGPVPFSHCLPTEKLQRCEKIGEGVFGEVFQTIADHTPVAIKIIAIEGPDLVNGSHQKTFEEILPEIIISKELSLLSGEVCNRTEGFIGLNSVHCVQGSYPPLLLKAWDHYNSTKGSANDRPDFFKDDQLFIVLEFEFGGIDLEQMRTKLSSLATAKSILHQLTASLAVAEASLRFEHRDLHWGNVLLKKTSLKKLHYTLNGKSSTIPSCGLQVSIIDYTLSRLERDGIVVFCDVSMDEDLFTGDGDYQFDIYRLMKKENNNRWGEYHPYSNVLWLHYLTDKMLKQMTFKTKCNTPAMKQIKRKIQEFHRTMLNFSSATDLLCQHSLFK
T8 sequence (O94804 whole entry): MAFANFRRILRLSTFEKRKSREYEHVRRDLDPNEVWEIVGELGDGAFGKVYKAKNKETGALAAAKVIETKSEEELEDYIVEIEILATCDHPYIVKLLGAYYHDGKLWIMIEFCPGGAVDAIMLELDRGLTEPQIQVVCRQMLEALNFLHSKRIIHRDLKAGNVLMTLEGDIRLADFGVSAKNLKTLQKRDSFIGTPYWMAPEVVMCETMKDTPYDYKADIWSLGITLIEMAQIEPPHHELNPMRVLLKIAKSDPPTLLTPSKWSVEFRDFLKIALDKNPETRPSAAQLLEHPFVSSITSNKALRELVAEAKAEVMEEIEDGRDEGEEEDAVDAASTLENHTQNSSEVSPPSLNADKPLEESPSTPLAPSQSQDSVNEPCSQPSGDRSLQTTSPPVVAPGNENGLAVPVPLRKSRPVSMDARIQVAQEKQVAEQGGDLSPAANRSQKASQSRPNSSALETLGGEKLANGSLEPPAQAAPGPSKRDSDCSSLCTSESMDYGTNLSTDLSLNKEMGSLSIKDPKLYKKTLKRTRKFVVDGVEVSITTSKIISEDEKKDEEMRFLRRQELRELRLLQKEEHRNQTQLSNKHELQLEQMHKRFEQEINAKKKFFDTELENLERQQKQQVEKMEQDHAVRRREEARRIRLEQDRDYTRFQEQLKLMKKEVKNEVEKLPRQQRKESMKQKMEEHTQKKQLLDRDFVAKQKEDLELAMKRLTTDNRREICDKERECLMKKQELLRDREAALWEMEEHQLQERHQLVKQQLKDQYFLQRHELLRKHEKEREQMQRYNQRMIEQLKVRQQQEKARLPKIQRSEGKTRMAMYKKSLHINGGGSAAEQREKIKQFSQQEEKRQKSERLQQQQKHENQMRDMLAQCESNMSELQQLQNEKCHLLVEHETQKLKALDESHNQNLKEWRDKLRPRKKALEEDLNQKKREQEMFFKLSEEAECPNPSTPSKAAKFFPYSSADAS
Sequence of MYO3A (Q8NEV4 whole entry): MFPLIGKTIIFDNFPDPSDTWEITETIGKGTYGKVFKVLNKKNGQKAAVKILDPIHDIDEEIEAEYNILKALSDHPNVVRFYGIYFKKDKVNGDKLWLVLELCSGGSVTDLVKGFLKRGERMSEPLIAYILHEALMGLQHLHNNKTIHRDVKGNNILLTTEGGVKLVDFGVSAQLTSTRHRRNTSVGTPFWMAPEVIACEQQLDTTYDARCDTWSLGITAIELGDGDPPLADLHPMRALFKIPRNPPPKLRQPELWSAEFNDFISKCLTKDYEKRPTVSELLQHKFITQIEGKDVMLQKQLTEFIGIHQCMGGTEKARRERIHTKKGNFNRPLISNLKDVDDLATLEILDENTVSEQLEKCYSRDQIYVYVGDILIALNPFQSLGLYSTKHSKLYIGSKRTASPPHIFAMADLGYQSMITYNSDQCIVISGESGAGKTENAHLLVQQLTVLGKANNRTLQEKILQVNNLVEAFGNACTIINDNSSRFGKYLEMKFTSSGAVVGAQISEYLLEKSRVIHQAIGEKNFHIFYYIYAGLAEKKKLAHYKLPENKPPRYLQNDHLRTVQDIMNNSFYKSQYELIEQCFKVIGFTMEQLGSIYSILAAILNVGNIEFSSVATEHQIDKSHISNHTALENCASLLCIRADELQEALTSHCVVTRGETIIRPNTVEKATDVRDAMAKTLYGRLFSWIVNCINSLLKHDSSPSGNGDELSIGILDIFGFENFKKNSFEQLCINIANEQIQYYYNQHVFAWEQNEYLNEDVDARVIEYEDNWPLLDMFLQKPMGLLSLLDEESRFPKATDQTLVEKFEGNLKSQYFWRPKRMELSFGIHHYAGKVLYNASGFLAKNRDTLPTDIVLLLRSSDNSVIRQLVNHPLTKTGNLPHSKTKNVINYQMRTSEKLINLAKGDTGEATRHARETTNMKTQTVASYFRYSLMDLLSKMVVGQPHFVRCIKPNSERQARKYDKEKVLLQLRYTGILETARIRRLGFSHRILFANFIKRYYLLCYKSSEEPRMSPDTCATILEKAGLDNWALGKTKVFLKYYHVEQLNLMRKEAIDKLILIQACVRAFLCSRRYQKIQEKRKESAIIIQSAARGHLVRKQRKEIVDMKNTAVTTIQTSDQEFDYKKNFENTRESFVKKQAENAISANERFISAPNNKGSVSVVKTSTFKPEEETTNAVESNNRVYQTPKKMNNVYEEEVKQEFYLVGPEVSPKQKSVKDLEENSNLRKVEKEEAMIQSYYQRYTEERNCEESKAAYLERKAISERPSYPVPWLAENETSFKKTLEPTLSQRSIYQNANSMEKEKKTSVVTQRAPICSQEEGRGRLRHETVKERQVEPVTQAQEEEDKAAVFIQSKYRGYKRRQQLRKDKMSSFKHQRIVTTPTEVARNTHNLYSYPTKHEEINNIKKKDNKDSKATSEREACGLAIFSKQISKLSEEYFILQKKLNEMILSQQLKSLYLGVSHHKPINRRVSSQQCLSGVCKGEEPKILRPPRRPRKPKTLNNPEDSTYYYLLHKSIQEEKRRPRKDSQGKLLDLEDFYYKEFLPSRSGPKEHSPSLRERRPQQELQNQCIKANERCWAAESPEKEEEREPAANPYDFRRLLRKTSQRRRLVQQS
T6 sequence (O60285 whole entry): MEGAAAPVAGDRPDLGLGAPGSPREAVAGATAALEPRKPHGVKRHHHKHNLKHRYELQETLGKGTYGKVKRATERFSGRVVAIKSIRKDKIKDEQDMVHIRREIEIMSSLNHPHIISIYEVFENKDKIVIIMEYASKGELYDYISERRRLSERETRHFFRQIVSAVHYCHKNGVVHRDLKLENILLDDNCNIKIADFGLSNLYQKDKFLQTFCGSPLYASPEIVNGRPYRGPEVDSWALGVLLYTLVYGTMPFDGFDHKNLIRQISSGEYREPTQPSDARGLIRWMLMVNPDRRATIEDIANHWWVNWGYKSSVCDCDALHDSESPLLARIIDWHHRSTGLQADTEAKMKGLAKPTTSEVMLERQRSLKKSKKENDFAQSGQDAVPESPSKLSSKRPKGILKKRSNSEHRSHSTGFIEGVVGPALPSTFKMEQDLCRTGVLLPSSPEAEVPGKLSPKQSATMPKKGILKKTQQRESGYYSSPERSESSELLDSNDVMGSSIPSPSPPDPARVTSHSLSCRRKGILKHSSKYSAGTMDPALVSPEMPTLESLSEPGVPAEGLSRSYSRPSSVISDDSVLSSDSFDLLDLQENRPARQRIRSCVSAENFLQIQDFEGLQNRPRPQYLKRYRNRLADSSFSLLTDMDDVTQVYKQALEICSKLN
Sequence of CSNK1G3 (Q9Y6M4 whole entry): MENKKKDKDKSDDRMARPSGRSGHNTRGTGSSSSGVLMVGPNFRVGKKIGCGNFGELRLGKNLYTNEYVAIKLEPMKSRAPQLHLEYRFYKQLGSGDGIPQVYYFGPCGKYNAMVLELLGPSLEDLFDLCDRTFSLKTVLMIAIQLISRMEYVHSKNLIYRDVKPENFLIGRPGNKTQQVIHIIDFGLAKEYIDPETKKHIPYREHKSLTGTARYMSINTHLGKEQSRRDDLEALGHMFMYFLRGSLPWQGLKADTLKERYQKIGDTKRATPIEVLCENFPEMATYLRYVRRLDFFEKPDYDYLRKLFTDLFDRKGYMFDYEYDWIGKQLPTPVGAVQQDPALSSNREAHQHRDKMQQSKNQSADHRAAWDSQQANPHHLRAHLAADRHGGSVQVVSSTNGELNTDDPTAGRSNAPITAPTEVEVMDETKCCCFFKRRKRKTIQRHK

Compound `Cc1cn(-c2cc(NC(=O)c3ccc4c(c3)CN(c3cncnc3)C[C@@H]4C)cc(C(F)(F)F)c2)cn1` [Compound 6j] has a remaining activity at 1 µM (MST1) of 85%, a remaining activity at 1 µM (HASPIN) of 100% and a remaining activity at 1 µM (PIP5K1A) of 100%. It also gave a remaining activity at 1 µM (ABL1-phosphorylated) of 80%, a remaining activity at 1 µM (EGFR(L858R,T790M)) of 100% and a remaining activity at 1 µM (IRAK4) of 100%. It also gave a remaining activity at 1 µM (MERTK) of 61%, a remaining activity at 1 µM (SNARK) of 100% and a remaining activity at 1 µM (AMPK-alpha1) of 83%. The remaining activity at 1 µM (EGFR(T790M)) was 100%, the remaining activity at 1 µM (PIP5K2B) was 81% and the remaining activity at 1 µM (CSNK1G3) was 72%. The remaining activity at 1 µM (EPHA5) was 74%, the remaining activity at 1 µM (QSK) was 94% and the remaining activity at 1 µM (PAK1) was 84%. For the same compound, the remaining activity at 1 µM (RET(V804L)) was 94%, the remaining activity at 1 µM (PRKG1) was 81% and the remaining activity at 1 µM [1] was 97%. For the same compound, the remaining activity at 1 µM (RIOK2) was 77%, the remaining activity at 1 µM (PIK3CA(E545A)) was 86% and the remaining activity at 1 µM (ERBB4) was 100%. For the same compound, the remaining activity at 1 µM (PRKCH) was 97%, the remaining activity at 1 µM (NEK9) was 85% and the remaining activity at 1 µM (ARK5) was 82%. For the same compound, the remaining activity at 1 µM (PRKG2) was 98%, the remaining activity at 1 µM (MYO3A) was 93% and the remaining activity at 1 µM (MRCKA) was 93%. For the same compound, the remaining activity at 1 µM [2] was 100%, the remaining activity at 1 µM (LOK) was 72% and the remaining activity at 1 µM (PIK3CA) was 100%. The remaining activity at 1 µM (PIK3CA(H1047L)) was 100%, the remaining activity at 1 µM (MEK2) was 100% and the remaining activity at 1 µM (CSK) was 92%. For the same compound, the remaining activity at 1 µM (MARK4) was 100% and the remaining activity at 1 µM (EPHA8) was 21%.
